# Measured values from paper PMC10055046 (bioRxiv, 2023).
# Experiments:
# WT hOCT1 = biological target: T1, WT hOCT1 (Homo sapiens, UniProt O15245); settings: cited from earlier work
# T1 sequence (O15245 1-554): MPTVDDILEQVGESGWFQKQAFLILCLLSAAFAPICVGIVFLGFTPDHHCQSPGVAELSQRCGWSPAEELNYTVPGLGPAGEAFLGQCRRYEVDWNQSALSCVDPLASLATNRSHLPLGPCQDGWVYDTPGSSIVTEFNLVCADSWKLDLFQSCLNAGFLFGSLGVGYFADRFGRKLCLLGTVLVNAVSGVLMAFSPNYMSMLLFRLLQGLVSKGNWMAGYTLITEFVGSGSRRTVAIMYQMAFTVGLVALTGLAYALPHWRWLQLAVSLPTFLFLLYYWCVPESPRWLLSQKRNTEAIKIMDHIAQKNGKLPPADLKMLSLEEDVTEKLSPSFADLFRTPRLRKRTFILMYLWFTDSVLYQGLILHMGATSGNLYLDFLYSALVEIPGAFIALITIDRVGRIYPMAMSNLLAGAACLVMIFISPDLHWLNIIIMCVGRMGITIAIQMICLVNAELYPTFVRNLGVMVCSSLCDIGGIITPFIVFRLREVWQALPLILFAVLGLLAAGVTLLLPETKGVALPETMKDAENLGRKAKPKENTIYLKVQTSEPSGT
# OCT2CS = biological target: T2, OCT2CS (Homo sapiens, UniProt O15244); test: [3H]-verapamil accumulation in OCT2CS-injected oocytes; type: cell-based; settings: 100 nM [3H]-verapamil, 30 min
# T2 sequence (O15244 1-555): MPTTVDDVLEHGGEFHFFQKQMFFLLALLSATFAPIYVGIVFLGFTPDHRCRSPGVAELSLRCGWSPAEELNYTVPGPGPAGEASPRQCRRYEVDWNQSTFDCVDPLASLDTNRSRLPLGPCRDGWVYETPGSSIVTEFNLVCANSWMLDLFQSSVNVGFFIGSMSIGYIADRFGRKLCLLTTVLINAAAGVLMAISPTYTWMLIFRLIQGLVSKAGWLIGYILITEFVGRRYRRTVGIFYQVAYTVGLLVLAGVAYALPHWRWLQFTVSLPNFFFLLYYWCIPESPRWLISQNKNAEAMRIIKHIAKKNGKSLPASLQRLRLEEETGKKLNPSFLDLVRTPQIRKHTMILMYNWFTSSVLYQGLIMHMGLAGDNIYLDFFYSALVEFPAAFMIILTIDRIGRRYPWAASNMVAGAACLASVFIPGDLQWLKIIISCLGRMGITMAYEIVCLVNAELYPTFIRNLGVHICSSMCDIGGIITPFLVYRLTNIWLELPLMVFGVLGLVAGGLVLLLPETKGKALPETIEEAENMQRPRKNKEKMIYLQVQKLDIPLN
Structure (SMILES),"Kt for metformin, WT hOCT1, previous reports (WT hOCT1) [mM]","Uptake of [3H]-verapamil by OCT2CS (OCT2CS; n=3, listed as VPM)","Uptake of [3H]-verapamil by OCT2CS (OCT2CS; n=3, listed as verapamil)"
CN(C)C(=N)N=C(N)N [metformin],1 to 5,,
"COc1ccc(CCN(C)CCCC(C#N)(c2ccc(OC)c(OC)c2)C(C)C)cc1OC (racemic) [(±)-VPM, verapamil]",,does not mediate uptake,does not accumulate
